The values that follow are results of earlier work, collected in publication PMC9292820 (British Journal of Clinical Pharmacology, 2021).

Data set [1] has as its system healthy male participants.
For data set [2], the system named is angiotensin II (Ang‐II). The note with it: rats, bolus injection.

buprenorphine: the “decrease in pupil/iris ratio (miosis)” value in data set [1] was “up to 50%”.
For the substance “opiorphin (QRFSR; Opiorphin; UniProt Q99935 22-26, looked up)”, in data set [2], the “levels of angiotensin II (Ang‐II)” value is on record as “increased levels”.
